What is called IC50 is the concentration that gives 50% inhibition. Low readings indicate greater potency in that assay, high ones weaker potency in that assay.

For one assay, the target named is ALK5 (Homo sapiens (Human), UniProt P36897). Kind of assay: Evaluation experiment of ALK5 enzyme activity inhibition IC50 (ADP-Glo kinase assay). Type of assay: biochemical.
Chain of ALK5 (P36897 34-503): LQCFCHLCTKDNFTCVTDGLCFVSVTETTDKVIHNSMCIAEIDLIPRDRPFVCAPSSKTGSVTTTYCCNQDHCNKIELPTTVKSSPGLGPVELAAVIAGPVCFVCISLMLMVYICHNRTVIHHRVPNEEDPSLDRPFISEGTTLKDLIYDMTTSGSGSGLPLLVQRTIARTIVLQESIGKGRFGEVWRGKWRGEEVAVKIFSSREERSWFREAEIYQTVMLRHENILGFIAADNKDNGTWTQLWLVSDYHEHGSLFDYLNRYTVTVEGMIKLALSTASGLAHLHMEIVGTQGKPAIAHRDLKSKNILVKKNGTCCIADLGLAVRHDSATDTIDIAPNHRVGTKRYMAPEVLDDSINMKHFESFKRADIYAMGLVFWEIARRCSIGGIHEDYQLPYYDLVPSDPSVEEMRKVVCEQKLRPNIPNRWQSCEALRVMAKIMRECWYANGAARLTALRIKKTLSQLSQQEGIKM
Conditions: not given
The protocol: 1. Preparation of a 1× kinase buffer: 40 mM Tris (pH 7.5), 20 mM MgCl2, 0.10% BSA, 1 mM DTT.
2. Compound preparation: The final detection concentration of the compound was 10 μM, which was prepared to a 100-fold concentration, i.e., 1 mM. 100 μL of the 100-fold compound was added in the second well of the 384-well plate, and 60 μL of 100% DMSO was added to the other wells. […] 50 nL of the compound was transferred to the reaction plate with echo.
3. Kinase reaction: The kinase was added to a 1× kinase buffer to form a 2× enzyme solution. […] The polypeptide TGFbR1 (purchased from Signal Chem, catalog number T36-58) and ATP were added to a 1× kinase buffer to form a 2× substrate solution. The final concentration of the substrate solution was peptide TGFbR1 0.1 mg/mL, ATP 7 μM. 2.5 μL of the 2× enzyme solution was added to the 384-well reaction plate (there was already 50 nL of 100% DMSO dissolved compound), and a 1× kinase buffer was added to a negative control well. The reaction solution was incubated at room temperature for 10 minutes. 2.5 μL of 2× substrate solution was added to the 384-well reaction plate. The 384-well plate was covered and incubated at 30° C. for 1 hour. ADP-Glo reagent (purchased from Promege, catalog number v9102) was equilibrated to room temperature. 5 μL of ADP-Glo reagent was transferred to the reaction well of the 384-well plate to stop the reaction.
4. Detection of reaction results: 10 μL of kinase detection reagent was transferred to each well, shaken for 1 minute, and let stand at room temperature for 30 minutes. The sample luminescence value was read at Synegy.
5. Curve fitting: The data of the luminescence reading were copied from the Synegy program. The value of the luminescence reading was converted to inhibition percentage by a formula (inhibition percentage=(max−sample RLU)/(max−min)×100, where “min” was a fluorescence reading for a control sample without enzyme; “max” was a fluorescence reading for a sample with DMSO as a control). The data were imported into MS Excel and GraphPad Prism was used for curve fitting. IC50 value was calculated.
(In general: In ADP-Glo the light output rises with the ADP produced.)
For `NC(=O)c1cnc2ccc(/C=C\c3cccc(C(F)(F)F)n3)cn12` [Compound 11], the IC50 is 10 nM.

Still in this assay, the particulars now being: ALK5 25 nM, peptide TGFbR1 0.1 mg/mL, ATP 7 μM, 30° C. 1 hour, ADP-Glo luminescence.
Compound `Cc1cccc(/C=C\c2ccc3ncc(C(=O)NC4CC4)n3c2)n1` [Compound 4] had an IC50 of 17 nM. Still for that read-out and setting: under `Cc1cccc(/C=C\c2ccn3ncc(C(N)=O)c3c2)n1` [Compound 13] stands 5.1 nM.

Compound `Cc1cccc(/C=C\c2ccc3ncc(C(N)=O)nc3c2)n1` [Compound 14] showed an IC50 of 78 nM.

Regarding `Cc1cccc(C2=C(c3ccc4ncc(C(N)=O)n4c3)CCCC2)n1` [Compound 16], the IC50 is 48 nM. On to `Cc1cccc(/C=C(/C(=O)O)c2ccc3ncc(C(N)=O)n3c2)n1` [Compound 17], for which the IC50 amounted to 616 nM. On the same count and under the same terms, the same measure for `Cc1cccc(/C=C(/C(=O)OC(C)(C)C)c2ccc3ncc(C(N)=O)n3c2)n1` [Compound 17a]: 6.6 nM. The same measure, in the same setting: the same measure for `Cc1cccc(/C=C(/C(=O)N(C)C)c2ccc3ncc(C(N)=O)n3c2)n1` [Compound 20]: 34 nM.

For the origin of these results see patent US11447490B2, “Aromatic heterocyclic substituted olefin compound, preparation method for same, pharmaceutical composition of same, and applications thereof” (SHANGHAI YINGLI PHARMACEUTICAL CO., LTD, priority 2018, dated 2022).
